Laboratory results: US11319452B2, “Vapor source using solutions of precursors in tertiary amines” (President and Fellows of Harvard College, priority 2013, dated 2022)
Blank lines part the entries; values can stand above or below the compound they belong to.

Columns and labels:
[1] = Solubility of amidinate precursors in dry, oxygen-free trialkylamine solvent; assay type: physicochemical; details: for solubility: in dry
Protocol: Another important criterion for solvents is that they dissolve a sufficient amount of precursor. Useful concentrations of the solutions are typically larger than 10 weight per cent, larger than 20 weight percent in more preferred embodiments, and larger than 40 weight percent in the most preferred embodiments.
Purification to remove oxygen, moisture and di-n-hexylamine was carried out as follows: 95 g of tri-n-hexylamine was mixed with 1 g of Na and heated to 100° C. under a N2 atmosphere for 3 hours. Then the purified tri-n-hexylamine was distilled out and stored in a glove box under a purified N2 atmosphere. A nickel precursor, bis(N,N′-di-tert-butylacetamidinato)nickel(II),
[drawing 6] was dissolved in the purified dry, oxygen-free tri-n-hexylamine.

[2] = Evaporation rate by isothermal thermogravimetric analysis (TGA); assay type: physicochemical
Excerpt: DLE is a non-equilibrium evaporation process, because the vapor is swept away from the surface of the liquid before it can reach the equilibrium vapor pressure. The amount of liquid vaporized is thus determined by the evaporation rate. The rate of evaporation of a material can be measured using isothermal thermogravimetric analysis (TGA). In this method, a small sample (typically about 50 milligrams) of a material is held in the pan of a microbalance while a flow of a gas, such as nitrogen, passes over the surface of the material. As vapor leaves the surface of the material, its mass decreases and the microbalance measures the mass of the remaining un-evaporated material. […] The furnace temperature was increased from 110° C. to 115° C. during the time from 160 minutes to 162 minutes, at which time the temperature had stabilized at 115° C. The many mass values measured from 162 minutes until 175 minutes form a nearly continuous thick line in FIG. 1. […]
One class of precursors widely used for ALD and CVD are metal amidinates. One example is (N,N′-di-sec-butylacetamidinato)copper(I) dimer, whose evaporation rate was also measured by the same isothermal TGA method. […]

chromosomes = details: reported in vitro; cited from earlier work
marine organisms = details: cited from earlier work
human = details: cited from earlier work
[3] = room temperature; cited from earlier work
[4] = in tri-n-hexylamine and in tri-n-heptylamine

solubility ([1]; oxygen-free tri-n-hexylamine): 22 weight percent
Compound: bis(N,N′-di-tert-butylacetamidinato)nickel(II)

solubility (in words) ([1]; in tri-n-hexylamine): high
Compound: bis(N,N′-diisopropylacetamidinato)tin(II)

solubility (in words) [1, 4]: high
Compound: tris(N,N′-diisopropylacetamidinato)yttrium(III)

solubility ([1]; oxygen-free tri-n-hexylamine): 42 weight percent
Compound: bis(N,N′-di-tert-butylacetamidinato)manganese(II)

evaporation rate ([2]; 160° C.=433 K, read from FIG. 2, neat precursor into 1 atmosphere nitrogen): about 0.8 mg cm^−2 min^−1
solubility ([1]; oxygen-free tri-n-hexylamine and in tri-n-heptylamine): about 30 weight percent
Compound: bis(N,N′-di-sec-butylacetamidinato)copper(I) dimer

Compound: Cc1cccc2ccccc12 [1-methylnaphthalene]
chromosome damage in vitro (chromosomes): cause damage to chromosomes
toxicity to marine organisms (marine organisms): highly toxic
effect of repeated human exposure (human): causes sensitization

evaporation rate ([2]; 115° C., flow of nitrogen gas at one atmosphere): 0.346 mg min^−1 cm^−2
Compound: CCCCCCN(CCCCCC)CCCCCC [tri-n-hexylamine]

solubility ([1]; oxygen-free tri-n-hexylamine): 8 weight percent
Compound: bis(N,N′-diisopropylpentamidinato)manganese(II)

Compound: CCCCCCCCCCCC [Dodecane, n-dodecane]
vapor pressure [3]: around 120 mTorr

solubility (in words) [1, 4]: high
Compound: tris(N,N′-diisopropylformamidinato)lanthanum(III)

solubility (in words) ([1]; in tri-n-hexylamine): high
Compound: bis(N,N′-diisopropylacetamidinato)cobalt(II)

solubility (in words) [1, 4]: moderate
Compound: bis(N,N′-di-tert-butylacetamidinato)ruthenium(II)tricarbonyl
